According to US8178506B2, “Oligomeric compounds and compositions for use in modulation of small non-coding RNAs” (Regulus Therapeutics Inc., priority 2003, dated 2012):
In the oligonucleotide strings, read from the 5' end, every base follows the letter of its sugar. An asterisk marks phosphorothioate; unmarked linkages are phosphodiester. Other units and linkages are bracketed, terminal groups are in braces. A string of capitals states the bases alone. e = 2'-O-(2-methoxyethyl) (MOE); [5mC] = 5-methylcytosine; d = 2'-deoxy (DNA)

Key:
[1] = test system: IGFBP-1; assay: IGFBP-1 mRNA expression in HepG2 cells; format: cell-based, human; settings: for IGFBP1 mRNA: four hours, UTC = 100; for IGFBP1 mRNA expression: Experiment 2, insulin treated: HepG2 cells transfected with oligomeric compound, 1 nM insulin for four hours, UTC + 1 nM insulin = 100
Description: (§1) Approximately 28 hours after transfection, the cells are subjected to serum starvation for a period of 12 to 16 hours, using serum-free growth medium. Following serum starvation, cells are treated with 1 nM insulin (insulin-treated) or are left untreated (basal conditions) for approximately four hours. At the same time, untreated control cells in both plates are treated with 100 nM insulin to determine the maximal insulin response. Following insulin treatment (forty-eight hours after transfection), total RNA is harvested from all samples, and the amount of total RNA from each sample is determined using a Ribogreen assay (Invitrogen Corporation, Carlsbad, Calif.). Real-time PCR is performed on the total RNA samples using primer/probe sets for three insulin responsive genes: insulin-like growth factor binding protein-1 (IGFBP-1), cytosolic PEPCK (PEPCK-C), and follistatin. Gene expression levels obtained by real-time PCR are normalized for total RNA content in the samples.
(§2) Oligomeric compounds of the present invention were tested for their effects on insulin signaling in HepG2 cells. HepG2 cells were plated at 7500 cells/well in collagen coated 96-well plates. The following day, cells were transfected with oligomeric compounds targeting miRNAs using 100 nM oligomeric compound in LIPOFECTIN™ (Invitrogen Corporation, Carlsbad, Calif.) in two 96-well plates. The oligomeric compounds were tested in triplicate on each 96-well plate, except for positive and negative controls, which were measured up to six times per plate. At the end of transfection, the transfection medium was replaced by regular growth medium. Twenty-eight hours post-transfection, the cells were subjected to overnight (sixteen to eighteen hours) serum starvation using serum free growth medium. Forty-four hours post-transfection, the cells in the transfected wells were treated with either no insulin (“basal” Experiment 1, for identification of insulin-mimetic compounds) or with 1 nM insulin (“insulin treated” Experiment 2, for identification of insulin sensitizers) for four hours. At the same time, in both plates, cells in some of the un-transfected control wells are treated with 100 nM insulin to determine maximal insulin response. At the end of the insulin or no-insulin treatment (forty-eight hours post-transfection), total RNA is isolated from both the basal and insulin treated (1 nM) 96-well plates, and the amount of total RNA from each sample is determined using a Ribogreen assay (Molecular Probes, Eugene, Oreg.). Real-time PCR is performed on all the total RNA samples using primer/probe sets for three insulin responsive genes: PEPCK-c, IGFBP-1 and follistatin. Expression levels for each gene are normalized to total RNA, and values+standard deviation are expressed relative to the transfectant only untreated control (UTC) and negative control compounds.
(§3) Protocols for treatment of HepG2 cells and transfection of oligomeric compounds are as described in Example 18. Also as described in Example 18, forty-four hours post-transfection, the cells in the transfected wells were treated with either no insulin (“basal” Experiment 3 (below), for identification of insulin-mimetic compounds) or with 1 nM insulin (“insulin treated” Experiment 4 (below), for identification of insulin sensitizers) for four hours. At the same time, in both plates, cells in some of the un-transfected control wells are treated with 100 nM insulin to determine maximal insulin response. At the end of the insulin or no-insulin treatment (forty-eight hours post-transfection), total RNA is isolated from both the basal and insulin treated (1 nM) 96-well plates, and the amount of total RNA from each sample is determined using a Ribogreen assay (Molecular Probes, Eugene, Oreg.).

[2] = test system: follistatin; assay: Follistatin mRNA expression in HepG2 cells; format: cell-based, human; settings: for Follistatin mRNA: four hours, UTC = 100; for Follistatin mRNA expression: Experiment 2, insulin treated: HepG2 cells transfected with oligomeric compound, 1 nM insulin for four hours, UTC + 1 nM insulin = 100
Description: as §1, §2, §3

[3] = Experiment 1, basal (no insulin), HepG2, 100 nM oligomeric compound
[4] = Experiment 2, 1 nM insulin treated, HepG2, 100 nM oligomeric compound
[5] = HepG2 cells, Experiment 1, basal (no insulin)
[6] = Experiment 3, basal (no insulin), HepG2 cells, 48 hours post-transfection
[7] = Experiment 4, insulin-sensitization: HepG2 cells treated with 1 nM insulin for four hours, 48 h post-transfection, mRNA by real-time PCR

338664 (antisense e[5mC]*eA*eG*eA*e[5mC]*eT*e[5mC]*e[5mC]*e[5mC]*eA*eA*e[5mC]*eT*eG*eA*e[5mC]*e[5mC]*eA*eG*eA) [compound 338664]
IGFBP-1 (% UTC) [1, 3]: 90 % UTC | IGFBP-1 (% UTC) [1, 4]: 100 % UTC | Follistatin (% UTC) [2, 3]: 93 % UTC | Follistatin (% UTC) [2, 4]: 84 % UTC

327934 (antisense eG*eG*eT*eA*e[5mC]*eA*eA*eT*e[5mC]*eA*eA*e[5mC]*eG*eG*eT*e[5mC]*eG*eA*eT*eG*eG*eT) [compound 327934]
IGFBP-1 (% UTC) [1, 3]: 231 % UTC | IGFBP-1 (% UTC) [1, 4]: 244 % UTC | Follistatin (% UTC) [2, 3]: 140 % UTC | Follistatin (% UTC) [2, 4]: 103 % UTC

341806 (antisense GCCAATATTTCTGTGCTGCTA; all 2'-MOE, all phosphorothioate, methylation of C not given here) [compound 341806]
IGFBP1 mRNA [1, 5]: 128 | Follistatin mRNA [2, 5]: 75

327900 (antisense e[5mC]*eT*eG*e[5mC]*e[5mC]*eT*eG*eT*e[5mC]*eT*eG*eT*eG*e[5mC]*e[5mC]*eT*eG*e[5mC]*eT*eG*eT) [compound 327900]
IGFBP1 mRNA [1, 5]: 102 | Follistatin mRNA [2, 5]: 111

327880 (antisense eA*e[5mC]*eA*eA*eA*eT*eT*e[5mC]*eG*eG*eT*eT*e[5mC]*eT*eA*e[5mC]*eA*eG*eG*eG*eT*eA) [compound 327880]
IGFBP-1 (% UTC) [1, 3]: 137 % UTC | IGFBP-1 (% UTC) [1, 4]: 136 % UTC | Follistatin (% UTC) [2, 3]: 107 % UTC | Follistatin (% UTC) [2, 4]: 149 % UTC

328125 (antisense eT*eA*eT*eG*eA*eA*eA*eT*eG*e[5mC]*e[5mC]*eA*eG*eA*eG*e[5mC]*eT*eG*e[5mC]*e[5mC]*eA) [compound 328125]
IGFBP1 mRNA expression [1]: 216 | Follistatin mRNA expression [2]: 107

328759 (antisense eG*eA*eG*eG*eG*dA*dT*dT*dG*dT*dA*dT*dG*dA*dA*e[5mC]*eA*eT*e[5mC]*eT) [compound 328759]
IGFBP-1 (% UTC) [1, 6]: 356 % UTC | IGFBP-1 (% UTC) [1, 7]: 212 % UTC | Follistatin (% UTC) [2, 6]: 266 % UTC | Follistatin (% UTC) [2, 7]: 224 % UTC

327895 (antisense eA*e[5mC]*eA*eA*eA*e[5mC]*eA*e[5mC]*e[5mC]*eA*eT*eT*eG*eT*e[5mC]*eA*e[5mC]*eA*e[5mC]*eT*e[5mC]*e[5mC]*eA) [compound 327895]
IGFBP1 mRNA [1, 5]: 108 | Follistatin mRNA [2, 5]: 83

327922 (antisense eT*e[5mC]*eA*eG*eT*eT*eT*eT*eG*e[5mC]*eA*eT*eG*eG*eA*eT*eT*eT*eG*e[5mC]*eA*e[5mC]*eA) [compound 327922]
IGFBP-1 (% UTC) [1, 3]: 109 % UTC | IGFBP-1 (% UTC) [1, 4]: 104 % UTC | Follistatin (% UTC) [2, 3]: 57 % UTC | Follistatin (% UTC) [2, 4]: 61 % UTC

327905 (antisense e[5mC]*eA*eG*eA*e[5mC]*eT*e[5mC]*e[5mC]*eG*eG*eT*eG*eG*eA*eA*eT*eG*eA*eA*eG*eG*eA) [compound 327905]
IGFBP-1 (% UTC) [1, 3]: 107 % UTC | IGFBP-1 (% UTC) [1, 4]: 115 % UTC | Follistatin (% UTC) [2, 3]: 104 % UTC | Follistatin (% UTC) [2, 4]: 148 % UTC

327933 (antisense eA*eA*eG*eG*eG*eA*eT*eT*e[5mC]*e[5mC]*eT*eG*eG*eG*eA*eA*eA*eA*e[5mC]*eT*eG*eG*eA*e[5mC]) [compound 327933]
IGFBP-1 (% UTC) [1, 3]: 125 % UTC | IGFBP-1 (% UTC) [1, 4]: 179 % UTC | Follistatin (% UTC) [2, 3]: 112 % UTC | Follistatin (% UTC) [2, 4]: 185 % UTC

341804 (antisense ATCTGCACTGTCAGCACTTT; all 2'-MOE, all phosphorothioate, methylation of C not given here) [compound 341804]
IGFBP1 mRNA [1, 5]: 162 | Follistatin mRNA [2, 5]: 63

327916 (antisense eT*eG*eG*e[5mC]*eA*eT*eT*e[5mC]*eA*e[5mC]*e[5mC]*eG*e[5mC]*eG*eT*eG*e[5mC]*e[5mC]*eT*eT*eA*eA) [compound 327916]
IGFBP1 mRNA expression [1]: 128 | IGFBP1 mRNA [1, 5]: 102 | Follistatin mRNA expression [2]: 98 | Follistatin mRNA [2, 5]: 108

341807 (antisense CTGGGACTTTGTAGGCCAGTT; all 2'-MOE, all phosphorothioate, methylation of C not given here) [compound 341807]
IGFBP1 mRNA [1, 5]: 129 | Follistatin mRNA [2, 5]: 102

327892 (antisense eA*e[5mC]*eT*eT*eT*e[5mC]*eG*eG*eT*eT*eA*eT*e[5mC]*eT*eA*eG*e[5mC]*eT*eT*eT*eA) [compound 327892]
IGFBP-1 (% UTC) [1, 3]: 108 % UTC | IGFBP-1 (% UTC) [1, 4]: 139 % UTC | Follistatin (% UTC) [2, 3]: 91 % UTC | Follistatin (% UTC) [2, 4]: 96 % UTC

328114 (antisense eA*eA*eT*e[5mC]*eT*e[5mC]*eA*eT*eT*eT*eT*e[5mC]*eA*eT*eA*e[5mC]*eT*eT*eG*e[5mC]*eA) [compound 328114]
IGFBP1 mRNA expression [1]: 177 | Follistatin mRNA expression [2]: 81

328677 (eT*e[5mC]*e[5mC]*eT*eG*dG*dA*dT*dG*dA*dT*dA*dT*d[5mC]*dT*eA*e[5mC]*e[5mC]*eT*e[5mC]; antisense) [compound 328677]
IGFBP-1 (% UTC) [1, 6]: 208 % UTC | IGFBP-1 (% UTC) [1, 7]: 159 % UTC | Follistatin (% UTC) [2, 6]: 130 % UTC | Follistatin (% UTC) [2, 7]: 118 % UTC

327911 (antisense eG*e[5mC]*eT*eA*e[5mC]*e[5mC]*eT*eG*e[5mC]*eA*e[5mC]*eT*eG*eT*eA*eA*eG*e[5mC]*eA*e[5mC]*eT*eT*eT*eT) [compound 327911]
IGFBP1 mRNA expression [1]: 160 | IGFBP1 mRNA [1, 5]: 157 | Follistatin mRNA expression [2]: 71 | Follistatin mRNA [2, 5]: 81

328115 (antisense eA*eG*eA*eA*eG*eG*eT*eG*eG*eG*eG*eA*eG*e[5mC]*eA*eG*e[5mC]*eG*eT*e[5mC]*eA) [compound 328115]
IGFBP1 mRNA expression [1]: 120 | Follistatin mRNA expression [2]: 91

340927 (antisense eT*eG*eA*eG*e[5mC]*dT*dA*d[5mC]*dA*dG*dT*dG*d[5mC]*dT*dT*e[5mC]*eA*eT*e[5mC]*eT*e[5mC]*eA) [compound 340927]
IGFBP-1 (% UTC) [1, 3]: 201 % UTC | IGFBP-1 (% UTC) [1, 4]: 285 % UTC | Follistatin (% UTC) [2, 3]: 111 % UTC | Follistatin (% UTC) [2, 4]: 128 % UTC

327897 (antisense eA*e[5mC]*eA*eG*eG*e[5mC]*e[5mC]*eG*eG*eG*eA*e[5mC]*eA*eA*eG*eT*eG*e[5mC]*eA*eA*eT*eA) [compound 327897]
IGFBP1 mRNA expression [1]: 243 | IGFBP1 mRNA [1, 5]: 163 | Follistatin mRNA expression [2]: 123 | Follistatin mRNA [2, 5]: 129

327918 (antisense e[5mC]*eT*eA*eG*eT*eA*e[5mC]*eA*eT*e[5mC]*eA*eT*e[5mC]*eT*eA*eT*eA*e[5mC]*eT*eG*eT*eA) [compound 327918]
IGFBP1 mRNA expression [1]: 81 | IGFBP1 mRNA [1, 5]: 95 | Follistatin mRNA expression [2]: 76 | Follistatin mRNA [2, 5]: 75

327885 (antisense eA*e[5mC]*eT*eA*e[5mC]*e[5mC]*eT*eG*e[5mC]*eA*e[5mC]*eT*eG*eT*eA*eA*eG*e[5mC]*eA*e[5mC]*eT*eT*eT*eG) [compound 327885]
IGFBP1 mRNA [1, 5]: 161 | Follistatin mRNA [2, 5]: 74

327886 (antisense e[5mC]*eG*e[5mC]*eG*eT*eA*e[5mC]*e[5mC]*eA*eA*eA*eA*eG*eT*eA*eA*eT*eA*eA*eT*eG) [compound 327886]
IGFBP1 mRNA [1, 5]: 176 | Follistatin mRNA [2, 5]: 82

327954 (antisense eA*e[5mC]*eA*eA*eA*eG*eT*eT*e[5mC]*eT*eG*eT*eG*eA*eT*eG*e[5mC]*eA*e[5mC]*eT*eG*eA) [compound 327954]
IGFBP-1 (% UTC) [1, 3]: 118 % UTC | IGFBP-1 (% UTC) [1, 4]: 120 % UTC | Follistatin (% UTC) [2, 3]: 100 % UTC | Follistatin (% UTC) [2, 4]: 105 % UTC
